Test results as given in ChEMBL document CHEMBL4265875, “A comprehensive review on Aurora kinase: Small molecule inhibitors and clinical trial studies” (Eur J Med Chem, 2017).
pIC50, pKi: −log10 of the molar value.

How the values were obtained:
HCT-116 [1] = experiment: Antitumor activity against human HCT116 cells xenografted in mouse assessed as inhibition of tumor growth at 20 mg/kg; type: functional; conditions: read-out: TGI
[2] = Half life in tumor of mouse xenografted with human HCT116 cells at 15 to 20 mg/kg; type: ADME, organism-based, Neoplasm
HCT-116 [3] = experiment: Antitumor activity against human HCT116 cells xenografted in mouse assessed as inhibition of tumor growth at 15 mg/kg; type: functional; conditions: read-out: TGI
HL-60 = experiment: Antitumor activity against human HL60 cells xenografted in rat assessed as inhibition of tumor growth at 25 mg/kg, iv bid; type: functional; conditions: HL-60, iv, read-out: TGI
[4] = Growth inhibition of in human myeloma cells; type: functional, cell-based
[5] = Inhibition of Xenopus laevis aurora B (60 to 361 residues)/INCENP
SW48 [6] = experiment: Antitumor activity against human SW48 cells xenografted in nude rat assessed as reduction in tumor growth at 45 mg/kg, po administered twice daily for 2 days per week for 3 weeks and measured on day 27 relative to untreated control; type: functional
CAL-85-1 = experiment: Antiproliferation activity against human CAL851 cells assessed as inhibition of cell proliferation; type: functional, cell-based
HCT-116 [7] = experiment: Antitumor activity against human HCT116 cells xenografted in SCID mouse assessed as reduction in tumor bulk at 30 mg/kg, po bid for 12 days relative to untreated control; type: functional
SW48 [8] = experiment: Antitumor activity against human SW48 cells xenografted in nude rat assessed as reduction in tumor growth at 15 mg/kg, po administered twice daily for 2 days per week measured on day 10 relative to untreated control; type: functional
HCC1143 = experiment: Antiproliferation activity against human HCC1143 cells assessed as inhibition of cell proliferation; type: functional, cell-based
MCF7 = experiment: Antiproliferation activity against human MCF7 cells assessed as inhibition of cell proliferation; type: functional, cell-based
AU565 = experiment: Antiproliferation activity against human AU565 cells assessed as inhibition of cell proliferation; type: functional, cell-based
HCT-116 [9] = experiment: Antitumor activity against human HCT116 cells xenografted in SCID mouse assessed as reduction in tumor bulk at 15 mg/kg, po bid for 12 days relative to untreated control; type: functional
[10] = Plasma concentration in F344/N Jcl-rnu rat xenografted with luciferase expressing human HeLa cells at 16 mg/kg, po BID for 2 days; type: ADME, organism-based
SW48 [11] = experiment: Antitumor activity against human SW48 cells xenografted in nude rat assessed as reduction in tumor growth at 15 mg/kg, po administered twice daily for 2 days per week for 3 weeks and measured on day 27 relative to untreated control; type: functional
SW48 [12] = experiment: Antitumor activity against human SW48 cells xenografted in nude rat assessed as reduction in tumor growth at 45 mg/kg, po administered twice daily for 2 days per week measured on day 10 relative to untreated control; type: functional
[13] = Plasma concentration in F344/N Jcl-rnu rat xenografted with luciferase expressing human HeLa cells at 32 mg/kg, po BID for 2 days; type: ADME, organism-based
HCC1806 = experiment: Antiproliferation activity against human HCC1806 cells assessed as inhibition of cell proliferation; type: functional, cell-based
PC-3 [14] = experiment: Antitumor activity against human PC3 cells xenografted in nude mouse assessed as inhibition of tumor growth at 30 mg/kg, po qd; type: functional; conditions: PC-3, po, read-out: TGI
PC-3 [15] = experiment: Antitumor activity against human PC3 cells xenografted in nude mouse assessed as inhibition of tumor growth at 10 mg/kg, po qd; type: functional; conditions: PC-3, po, read-out: TGI
Aurora kinase B [16] = target: T1, Aurora kinase B (Homo sapiens, UniProt Q96GD4); experiment: Inhibition of aurora B in human MDA-MB-231 cells assessed as reduction in phosphorylation of histone H3 on Ser10 incubated for 4 hrs by high-content immunofluorescence imaging; type: cell-based
Aurora kinase B [17] = target: T1, Aurora kinase B; experiment: Inhibition of aurora B in human MDA-MB-231 cells assessed as reduction in enzyme autophosphorylation incubated for 4 hrs by high-content immunofluorescence imaging; type: cell-based
Aurora kinase B [18] = target: T1, Aurora kinase B; experiment: Inhibition of full-length His-tagged recombinant aurora B (unknown origin) expressed in insect cells using biotinylated LRRWSLG substrate by scintillation proximity assay
HCT-116 [19] = experiment: Antitumor activity against human HCT116 cells xenografted in mouse assessed as inhibition of tumor growth at 20 mg/kg, po qd for 10 days; type: functional; conditions: HCT-116, po, 240 h, read-out: TGI
HCT-116 [20] = experiment: Antitumor activity against human HCT116 cells xenografted in mouse assessed as inhibition of tumor growth at 15 to 60 mg/kg, po; type: functional
[21] = target: Aurora kinase B/Inner centromere protein (Homo sapiens) (UniProt Q96GD4+Q9NQS7); experiment: Inhibition of Aurora B/INCENP (unknown origin) assessed as inhibitor-enzyme complex half life pre-incubated for 1 hr followed by FL-PKAtide substrate and ATP addition; type: protein-complex assay
[22] = target: T2, Aurora kinase B/Inner centromere protein (Homo sapiens, UniProt Q96GD4); experiment: Inhibition of Aurora B/INCENP (unknown origin) pre-incubated for 1 hr followed by FL-PKAtide substrate and ATP addition; type: protein-complex assay
[23] = target: T2, Aurora kinase B/Inner centromere protein; experiment: Inhibition of Aurora B/INCENP (unknown origin) assessed as affinity constant pre-incubated for 1 hr followed by FL-PKAtide substrate and ATP addition; type: protein-complex assay

T1 sequence (Q96GD4 whole entry): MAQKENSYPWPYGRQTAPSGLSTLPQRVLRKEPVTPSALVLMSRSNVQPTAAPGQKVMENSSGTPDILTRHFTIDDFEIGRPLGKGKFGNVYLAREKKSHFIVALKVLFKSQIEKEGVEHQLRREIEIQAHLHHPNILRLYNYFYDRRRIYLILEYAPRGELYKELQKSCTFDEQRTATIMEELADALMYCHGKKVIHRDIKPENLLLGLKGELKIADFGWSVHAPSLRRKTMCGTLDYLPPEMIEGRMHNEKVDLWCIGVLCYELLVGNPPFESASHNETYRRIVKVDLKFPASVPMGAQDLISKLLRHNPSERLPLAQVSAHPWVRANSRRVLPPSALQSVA
T2 sequence (Q96GD4 whole entry): as above
T2 sequence (Q9NQS7 whole entry, further chain): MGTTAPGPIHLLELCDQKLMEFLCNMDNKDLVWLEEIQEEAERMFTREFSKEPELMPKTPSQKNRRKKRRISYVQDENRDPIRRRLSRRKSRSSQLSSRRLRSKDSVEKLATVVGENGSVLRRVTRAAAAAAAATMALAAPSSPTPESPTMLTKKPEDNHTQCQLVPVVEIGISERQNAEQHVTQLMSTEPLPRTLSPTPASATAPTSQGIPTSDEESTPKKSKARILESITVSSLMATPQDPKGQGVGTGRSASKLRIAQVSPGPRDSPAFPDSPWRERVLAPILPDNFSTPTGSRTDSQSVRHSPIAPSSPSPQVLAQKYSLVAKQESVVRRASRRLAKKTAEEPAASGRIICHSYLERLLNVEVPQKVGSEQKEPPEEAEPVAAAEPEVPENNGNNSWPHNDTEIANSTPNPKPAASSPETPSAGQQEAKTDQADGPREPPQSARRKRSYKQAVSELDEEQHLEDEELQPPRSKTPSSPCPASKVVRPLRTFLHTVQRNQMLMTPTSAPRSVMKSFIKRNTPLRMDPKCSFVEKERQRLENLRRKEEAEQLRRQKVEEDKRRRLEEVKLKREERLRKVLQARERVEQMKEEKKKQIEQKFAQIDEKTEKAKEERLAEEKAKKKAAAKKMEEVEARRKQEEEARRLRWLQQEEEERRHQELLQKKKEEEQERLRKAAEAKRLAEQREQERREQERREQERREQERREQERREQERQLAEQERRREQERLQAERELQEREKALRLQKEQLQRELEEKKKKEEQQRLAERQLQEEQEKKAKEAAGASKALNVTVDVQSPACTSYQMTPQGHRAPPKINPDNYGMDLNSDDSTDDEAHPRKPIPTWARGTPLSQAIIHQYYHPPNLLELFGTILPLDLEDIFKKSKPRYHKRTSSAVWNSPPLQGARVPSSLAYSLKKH

## O=C(Nc1c[nH]nc1-c1nc2ccc(CN3CCOCC3)cc2[nH]1)NC1CC1 [AT-9283]
HCT-116 [1]
  inhibition in vivo at 20 mg/kg: 76%
[2]
  half-life: 2.5 h
HCT-116 [3]
  inhibition in vivo at 15 mg/kg: 67%

## CO[C@@H](C(=O)N1Cc2[nH]nc(NC(=O)c3ccc(N4CCN(C)CC4)cc3)c2C1)c1ccccc1 [DANUSERTIB]
HL-60
  inhibition in vivo at 25 mg/kg: 75%

## Cc1cc(Nc2cc(N3CCN(C)CC3)nc(/C=C/c3ccccc3)n2)n[nH]1 [ENMD-2076]
[4]
  pIC50: 5.15 to 5.52

## CCS(=O)(=O)Nc1ccc2c(c1)/C(=C(/Nc1ccc(CN3CCCCC3)cc1)c1ccccc1)C(=O)N2 [HESPERADIN]
[5]
  pIC50: 6.60

## O=C(O)[C@]1(Cc2cccc(Nc3nccs3)n2)CC[C@@H](Oc2cccc(Cl)c2F)CC1 [MK-5108]
SW48 [6]
  T/C: 32%
CAL-85-1
  pIC50: 6.13
HCT-116 [7]
  T/C: 6%
SW48 [8]
  T/C: 35%
HCC1143
  pIC50: 6.38
MCF7
  pIC50: 6.28
AU565
  pIC50: 6.35
HCT-116 [9]
  T/C: 10%
[10]
  concentration at 48 h: 1.7 µM
SW48 [11]
  T/C: 58%
SW48 [12]
  T/C: 7%
[13]
  concentration at 48 h: 4.4 µM
HCC1806
  pIC50: 6.25

## O=C(O)c1ccc(Nc2ncc3c(n2)-c2ccc(Cl)cc2C(c2c(F)cccc2F)=NC3)cc1 [MLN-8054]
PC-3 [14]
  inhibition in vivo at 30 mg/kg: 84%
PC-3 [15]
  inhibition in vivo at 10 mg/kg: 76%

## CC(=O)NCC(=O)N1[C@@H]2CC[C@H]1c1ccc(Nc3ncc(C(F)(F)F)c(NC4CCC4)n3)cc12 [PF-03814735]
Aurora kinase B [16]
  pIC50: 7.30
Aurora kinase B [17]
  pIC50: 7.96
Aurora kinase B [18]
  pIC50: 8.30
HCT-116 [19]
  inhibition in vivo at 20 mg/kg: ≤ 50%

## CCc1cccc(CC)c1NC(=O)N1Cc2[nH]nc(NC(=O)c3ccc(N4CCN(C)CC4)cc3)c2C1 [PHA-680632]
HCT-116 [20]
  TGI: 70%

## CCS(=O)(=O)c1cccc(-c2cc(C(=O)NC3CCN(C)CC3)c(C)c3[nH]c4ncc(C)cc4c23)c1 [TAK-901]
[21]
  T1/2: 15.3 h
[22]
  pIC50: 7.82
[23]
  pKi: 10.70
